Patent EP4810040A2, “INHIBITORS OF APOL1 AND METHODS OF USING SAME” (priority 2020, dated 2022)
Where two headings read alike, the source gives them in different places.

Target: T1, APOL1 G1 (Homo sapiens, UniProt O14791, I384M/S342G)
T1 sequence (O14791 28-398 S342G/I384M): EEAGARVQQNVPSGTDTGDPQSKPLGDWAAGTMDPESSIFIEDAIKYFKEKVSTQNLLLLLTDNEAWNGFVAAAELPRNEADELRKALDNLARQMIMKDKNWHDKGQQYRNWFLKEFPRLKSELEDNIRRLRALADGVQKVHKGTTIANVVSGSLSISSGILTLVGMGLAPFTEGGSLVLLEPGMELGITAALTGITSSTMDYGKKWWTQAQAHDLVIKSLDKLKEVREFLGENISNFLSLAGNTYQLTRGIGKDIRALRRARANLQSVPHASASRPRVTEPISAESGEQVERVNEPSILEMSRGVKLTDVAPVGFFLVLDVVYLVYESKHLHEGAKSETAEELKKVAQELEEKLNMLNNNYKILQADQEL
Assay: MultiTox-Fluor Multiplex Cytotoxicity Assay, tet-inducible APOL1 G1 T-REx-HEK293 cells
Format: cell-based
Parameters: expressed in transfected cells; host or cells: T-REx HEK293, clone G1 DC3.25 (pAAVS1-Puro-APOL1 G1)
Conditions: for IC90: read-out: Multi-Tox Assay IC90; for Multi-Tox Assay Max Activity (%) / Emax: APOL1 variant not given; for Emax: read-out: Multi-Tox Assay Max Activity (%)
How it was run: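 T-REx-HEK293 cells carrying tet-inducible APOL1 G1 induced with 50 ng/mL tet alongside compound (top 10 µM, 10-point 3-fold, duplicate) for 24 h at 37 °C. MultiTox-Fluor dead/live protease fluorescence ratio read after 30 min; normalized to no-tet (100% viability) and tet-treated (0%) controls, then curve-fitted.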

[1] = HEK293, Multi-Tox Assay, APOL1 variant (G0/G1/G2) of the HEK293 cells not given
[2] = Multi-Tox Assay, APOL1 variant (G0/G1/G2) not stated in Table 46

SMILES	IC90 [1]	Multi-Tox Assay Max Activity (%) (Multi-Tox Assay)	Emax (Multi-Tox Assay)	IC90 [2]
CCC(O)Cn1cc([C@@H]2C[C@]3(C[C@H](C)N2)OCCc2cc(Cl)sc23)nn1 (mixture of isomers) [Compound 111]	50 to 500 nM	99.3%	–	–
Cc1cc([C@@H]2C[C@]3(C[C@H](C)N2)OCCc2cc(Cl)sc23)[nH]n1 (racemic) [Compound 73]	< 50 nM	–	99.8%	–
C[C@H]1C[C@@]2(C[C@@H](c3cccc(=O)[nH]3)N1)OCCc1cc(Cl)sc12 (racemic) [Compound 151]	> 500 nM	96.2%	–	–
C[C@H]1C[C@@]2(C[C@@H](c3cc(C4CC4)no3)N1)OCCc1cc(Cl)sc12 (racemic) [Compound 87]	< 50 nM	–	99.3%	–
Cc1nc([C@@H]2C[C@]3(C[C@H](C)N2)OCCc2cc(Cl)sc23)cn1C (racemic) [Compound 159]	> 500 nM	92.2%	–	–
C[C@H]1C[C@@]2(C[C@@H](C3CC3)N1)OCC(O)c1cc(Cl)sc12 (stereo partly drawn) [Compound 220, (2'S,6'S,7S)-2-chloro-2'-cyclopropyl-6'-methyl-spiro[4,5-dihydrothieno[2,3-c]pyran-7,4'-piperidine]-4-ol]	< 50 nM	–	99.3%	–
C[C@H]1CC2(C[C@@H](c3cn(C)nn3)N1)OCC(C)(C)c1sc(Cl)cc12 (single isomer, unassigned) [Compound 15]	< 50 nM	–	–	–
Cc1cc(C2CC3(CC(C)N2)OCCc2cc(Cl)sc23)ncn1 (stereo not drawn) [Compound 43]	< 50 nM	100.0%	–	–
C[C@H]1C[C@@]2(C[C@@H](c3cn(Cc4cncs4)nn3)N1)OCC(F)(F)c1cc(Cl)sc12 [Compound 365]	–	–	–	50 to 500 nM
CC1CC2(CC(C3CCOCC3)N1)OCCc1cc(Cl)sc12 (mixture of isomers) [Compound 216]	> 500 nM	–	97.7%	–
C[C@H]1C[C@@]2(C[C@@H](c3ccc(O)nc3)N1)OCCc1cc(Cl)sc12 (racemic) [Compound 68]	< 50 nM	–	99.7%	–
C[C@H]1C[C@@]2(C[C@@H](c3cn(CC4CCS(=O)(=O)C4)nn3)N1)OCC(F)(F)c1cc(Cl)sc12 (stereo partly drawn) [Compound 307]	50 to 500 nM	–	–	–
C[C@H]1C[C@@]2(C[C@@H](c3cn(Cc4ncnc5[nH]ccc45)nn3)N1)OC[C@@H](O)c1cc(Cl)sc12 [Compound 234]	50 to 500 nM	100.0%	–	–
C[C@H]1C[C@@]2(C[C@@H](C3(N)CC3)N1)OCCc1cc(Cl)sc12 [Compound 373, 1-[(2'S,6'S,7S)-2-chloro-6'-methyl-spiro[4,5-dihydrothieno[2,3-c]pyran-7,4'-piperidine]-2'-yl]cyclopropanamine]	–	–	–	50 to 500 nM
CC1CC2(CC(c3cn(CC4CC4)nn3)N1)OCCc1cc(Cl)sc12 (stereo not drawn) [Compound 122]	50 to 500 nM	99.7%	–	–
COc1cc(F)cc(Cn2cc([C@@H]3C[C@]4(C[C@H](C)N3)OCC(F)(F)c3cc(Cl)sc34)nn2)c1 [Compound 333]	50 to 500 nM	97.0%	–	–
C[C@H]1C[C@@]2(C[C@@H](c3cn(Cc4cnccn4)nn3)N1)OCC(F)(F)c1cc(Cl)sc12 [Compound 317]	50 to 500 nM	98.0%	–	–
C[C@H]1C[C@@]2(C[C@@H](c3ccccc3)N1)OCCc1cc(Cl)sc12 (racemic) [Compound 81]	< 50 nM	–	99.7%	–
CCc1cc2c(s1)C(C)COC21C[C@@H](c2cn(C)nn2)N[C@@H](C)C1 (single isomer, unassigned) [Compound 10]	< 50 nM	99.7%	–	–
Cc1nc([C@@H]2C[C@]3(C[C@H](C)N2)OCCc2cc(Cl)sc23)[nH]c1C (racemic) [Compound 150]	> 500 nM	96.3%	–	–
Cc1nc([C@@H]2C[C@]3(C[C@H](C)N2)OCCc2cc(Cl)sc23)co1 (racemic) [Compound 104]	50 to 500 nM	99.3%	–	–
COc1ccc(Cn2cc([C@@H]3C[C@]4(C[C@H](C)N3)OCC(F)(F)c3cc(Cl)sc34)nn2)cc1 [Compound 335]	> 500 nM	96.0%	–	–
C[C@H]1C[C@@]2(C[C@@H](c3cn(CC4CCOCC4)nn3)N1)OCC(F)(F)c1cc(Cl)sc12 [Compound 309]	50 to 500 nM	97.0%	–	–
